Marks after values point to notes of the source that are not given here. Peptide text beside a SMILES is read from it.
Experiments:
[1] = test system: mouse adult neural stem cells; assay: ATP-assay: proliferation (ATP levels) of neurosphere-derived cells; conditions: for Fold Induction ATP: vs vehicle
[2] = test system: cAMP activation in mouse adult neural stem cells; assay: cAMP detection (HitHunter EFC Cyclic AMP Chemiluminescence Assay); conditions: Table 2

`CC(C)C[C@H](NC(=O)[C@H](CCCCN)NC(=O)CNC(=O)[C@H](CC(C)C)NC(=O)[C@@H](N)C(C)C)C(=O)N[C@@H](CO)C(=O)N[C@@H](CCC(N)=O)C(=O)N[C@@H](CCC(=O)O)C(=O)N[C@@H](CC(C)C)C(=O)N[C@@H](Cc1c[nH]cn1)C(=O)N[C@@H](CCCCN)C(=O)N[C@@H](CC(C)C)C(=O)N[C@@H](CCC(N)=O)C(=O)N[C@H](C(=O)N[C@@H](Cc1ccc(O)cc1)C(=O)N1CCC[C@H]1C(=O)N[C@@H](CCCNC(=N)N)C(=O)N[C@H](C(=O)N[C@@H](CC(N)=O)C(=O)N[C@H](C(=O)NCC(=O)N[C@@H](CO)C(=O)NCC(=O)N[C@H](C(=O)N1CCC[C@H]1C(N)=O)[C@@H](C)O)[C@@H](C)O)[C@@H](C)O)[C@@H](C)O` (H-VLGKLSQELHKLQTYPRTNTGSGTP-NH2; N-terminus and C-terminus assumed) was tested, and the “ATP (nM ATP/well)” value ([1]; Table 4, 100 nM) was 15.0 ± 2.2 nM ATP/well.
With `CSCC[C@H](NC(=O)[C@H](CO)NC(=O)[C@H](Cc1ccc(O)cc1)NC(=O)[C@@H](N)CO)C(=O)N[C@@H](CCC(=O)O)C(=O)N[C@@H](Cc1cnc[nH]1)C(=O)N[C@@H](Cc1ccccc1)C(=O)N[C@@H](CCCNC(=N)N)C(=O)N[C@@H](Cc1c[nH]c2ccccc12)C(=O)NCC(=O)N[C@@H](CCCCN)C(=O)N1CCC[C@H]1C(=O)N[C@H](C(=O)NCC(=O)N[C@@H](CCCCN)C(=O)N[C@@H](CCCCN)C(=O)N[C@@H](CCCNC(=N)N)C(=O)N[C@@H](CCCNC(=N)N)C(=O)N1CCC[C@H]1C(=O)N[C@H](C(=O)N[C@@H](CCCCN)C(=O)N[C@H](C(=O)N[C@@H](Cc1ccc(O)cc1)C(=O)N1CCC[C@H]1C(=O)N[C@@H](CC(N)=O)C(=O)NCC(=O)N[C@@H](C)C(=O)N[C@@H](CCC(=O)O)C(=O)N[C@@H](CC(=O)O)C(=O)N[C@@H](CCC(=O)O)C(=O)N[C@@H](CO)C(=O)N[C@@H](C)C(=O)N[C@@H](CCC(=O)O)C(=O)N[C@@H](C)C(=O)N[C@@H](Cc1ccccc1)C(=O)N1CCC[C@H]1C(=O)N[C@@H](CC(C)C)C(=O)N[C@@H](CCC(=O)O)C(=O)N[C@@H](Cc1ccccc1)C(=O)O)C(C)C)C(C)C)C(C)C` [ACTH (Human)] (H-SYSMEHFRWGKPVGKKRRPVKVYPNGAEDESAEAFPLEF-OH) the “Fold Induction cAMP” value ([2]; 100 nM, vs vehicle) was 1.8** (100 nM) fold and the “Fold Induction ATP” value ([1]; Table 2, 1000 nM, 4 days) was 1.2* fold.
In the case of `CSCC[C@H](NC(=O)[C@H](CO)NC(=O)[C@H](Cc1ccc(O)cc1)NC(=O)[C@@H](N)CO)C(=O)N[C@@H](CCC(=O)O)C(=O)N[C@@H](Cc1c[nH]cn1)C(=O)N[C@@H](Cc1ccccc1)C(=O)N[C@@H](CCCNC(=N)N)C(=O)N[C@@H](Cc1c[nH]c2ccccc12)C(=O)NCC(=O)N[C@@H](CCCCN)C(=O)N1CCC[C@H]1C(=O)N[C@H](C(=O)NCC(=O)N[C@@H](CCCCN)C(=O)N[C@@H](CCCCN)C(=O)N[C@@H](CCCNC(=N)N)C(=O)N[C@@H](CCCNC(=N)N)C(=O)N1CCC[C@H]1C(=O)N[C@H](C(=O)N[C@@H](CCCCN)C(=O)N[C@H](C(=O)N[C@@H](Cc1ccc(O)cc1)C(=O)N1CCC[C@H]1C(=O)N[C@@H](CC(N)=O)C(=O)NCC(=O)N[C@@H](C)C(=O)N[C@@H](CCC(=O)O)C(=O)N[C@@H](CC(=O)O)C(=O)N[C@@H](CCC(=O)O)C(=O)N[C@@H](CO)C(=O)N[C@@H](C)C(=O)N[C@@H](CCC(=O)O)C(=O)N[C@@H](C)C(=O)N[C@@H](Cc1ccccc1)C(=O)N1CCC[C@H]1C(=O)N[C@@H](CC(C)C)C(=O)N[C@@H](CCC(=O)O)C(=O)N[C@@H](Cc1ccccc1)C(=O)O)C(C)C)C(C)C)C(C)C` [ACTH (Human)] (H-SYSMEHFRWGKPVGKKRRPVKVYPNGAEDESAEAFPLEF-OH; N-terminus and C-terminus assumed), the “cAMP (pmol/well)” value ([2]; 100 nM (cAMP concentration)) is reported as 0.11 ± 0.02 pmol/well and the “ATP (nM ATP/well)” value ([1]; Table 2, 1000 nM, 4 days) is reported as 15.7 ± 1.3 nM ATP/well.
With `CC[C@H](C)[C@@H]1NC(=O)[C@H](CCCNC(=N)N)NC(=O)[C@H](CC(=O)O)NC(=O)[C@H](CCSC)NC(=O)[C@H](CCCNC(=N)N)NC(=O)CNC(=O)CNC(=O)[C@H](Cc2ccccc2)NC(=O)[C@@H](NC(=O)[C@H](CO)NC(=O)[C@H](CO)NC(=O)[C@H](CCCNC(=N)N)NC(=O)[C@H](CCCNC(=N)N)NC(=O)[C@H](CC(C)C)NC(=O)[C@@H](N)CO)CSSC[C@@H](C(=O)N[C@@H](CC(N)=O)C(=O)N[C@@H](CO)C(=O)N[C@@H](Cc2ccccc2)C(=O)N[C@@H](CCCNC(=N)N)C(=O)N[C@@H](Cc2ccc(O)cc2)C(=O)O)NC(=O)CNC(=O)[C@H](CC(C)C)NC(=O)CNC(=O)[C@H](CO)NC(=O)[C@H](CCC(N)=O)NC(=O)[C@H](C)NC(=O)CNC1=O` [ANP (human)] the “ATP (nM ATP/well)” value ([1]; Table 4, 10 nM) was 12.7 ± 1.0 nM ATP/well and the “Fold Induction ATP” value ([1]; Table 4, 10 nM) was 1.3* fold.
`CC[C@H](C)[C@H](NC(=O)[C@H](CCC(N)=O)NC(=O)[C@H](Cc1c[nH]cn1)NC(=O)[C@H](C)NC(=O)[C@@H](N)CC(C)C)C(=O)N[C@@H](Cc1ccc(O)cc1)C(=O)N[C@@H](CCC(N)=O)C(=O)N[C@@H](Cc1ccccc1)C(=O)N[C@H](C(=O)N[C@@H](CC(=O)O)C(=O)N[C@@H](CCCCN)C(=O)N[C@@H](CC(=O)O)C(=O)N[C@@H](CCCCN)C(=O)N[C@@H](CC(=O)O)C(=O)N[C@@H](CC(N)=O)C(=O)N[C@H](C(=O)N[C@@H](C)C(=O)N1CCC[C@H]1C(=O)N[C@@H](CCCNC(=N)N)C(=O)N[C@@H](CO)C(=O)N[C@@H](CCCCN)C(=O)N[C@H](C(=O)N[C@@H](CO)C(=O)N1CCC[C@H]1C(=O)N[C@@H](CCC(N)=O)C(=O)NCC(=O)N[C@@H](Cc1ccc(O)cc1)C(N)=O)[C@@H](C)CC)C(C)C)[C@@H](C)O` [Adrenomedullin (26-52)] (H-LAHQIYQFTDKDKDNVAPRSKISPQGY-NH2; N-terminus and C-terminus assumed) was tested, and the “cAMP (pmol/well)” value ([2]; 1 nM (cAMP concentration)) was 0.33 ± 0.07 pmol/well and the “ATP (nM ATP/well)” value ([1]; Table 2, 1 nM, 4 days) was 11.4 ± 0.7 nM ATP/well.
`CC[C@H](C)[C@@H]1NC(=O)[C@H](CCCNC(=N)N)NC(=O)[C@H](CC(=O)O)NC(=O)[C@H](CCSC)NC(=O)[C@H](CCCNC(=N)N)NC(=O)CNC(=O)CNC(=O)[C@H](Cc2ccccc2)NC(=O)[C@@H](NC(=O)[C@H](CO)NC(=O)[C@H](CO)NC(=O)[C@H](CCCNC(=N)N)NC(=O)[C@H](CCCNC(=N)N)NC(=O)[C@H](CC(C)C)NC(=O)[C@@H](N)CO)CSSC[C@@H](C(=O)N[C@@H](CC(N)=O)C(=O)N[C@@H](CO)C(=O)N[C@@H](Cc2ccccc2)C(=O)N[C@@H](CCCNC(=N)N)C(=O)N[C@@H](Cc2ccc(O)cc2)C(=O)O)NC(=O)CNC(=O)[C@H](CC(C)C)NC(=O)CNC(=O)[C@H](CO)NC(=O)[C@H](CCC(N)=O)NC(=O)[C@H](C)NC(=O)CNC(=O)[C@H]([C@@H](C)CC)NC(=O)[C@H](CCCNC(=N)N)NC(=O)[C@H](CC(=O)O)NC(=O)[C@H](CCSC)NC(=O)[C@H](CCCNC(=N)N)NC(=O)CNC(=O)CNC(=O)[C@H](Cc2ccccc2)NC(=O)[C@@H](NC(=O)[C@H](CO)NC(=O)[C@H](CO)NC(=O)[C@H](CCCNC(=N)N)NC(=O)[C@H](CCCNC(=N)N)NC(=O)[C@H](CC(C)C)NC(=O)[C@@H](N)CO)CSSC[C@@H](C(=O)N[C@@H](CC(N)=O)C(=O)N[C@@H](CO)C(=O)N[C@@H](Cc2ccccc2)C(=O)N[C@@H](CCCNC(=N)N)C(=O)N[C@@H](Cc2ccc(O)cc2)C(=O)O)NC(=O)CNC(=O)[C@H](CC(C)C)NC(=O)CNC(=O)[C@H](CO)NC(=O)[C@H](CCC(N)=O)NC(=O)[C@H](C)NC(=O)CNC1=O` [Beta-ANP] was tested, and the “cAMP (pmol/well)” value ([2]; 100 nM (cAMP concentration)) was 070 ± 0.04 pmol/well and the “ATP (nM ATP/well)” value ([1]; Table 2, 100 nM, 4 days) was 13.6 ± 2.1 nM ATP/well.
In the case of `CC[C@H](C)[C@H](NC(=O)[C@H](C)NC(=O)[C@@H](NC(=O)[C@H](CCC(N)=O)NC(=O)[C@@H]1CCCN1C(=O)[C@H](Cc1ccccc1)NC(=O)[C@@H](NC(=O)[C@H](Cc1c[nH]cn1)NC(=O)[C@H](Cc1ccccc1)NC(=O)[C@H](CCCCN)NC(=O)[C@H](CC(N)=O)NC(=O)[C@H](Cc1ccccc1)NC(=O)[C@H](CC(=O)O)NC(=O)[C@H](CCC(N)=O)NC(=O)[C@@H](NC(=O)[C@H](Cc1ccc(O)cc1)NC(=O)[C@@H](NC(=O)CNC(=O)[C@H](CC(C)C)NC(=O)[C@H](CCSC)NC(=O)[C@@H]1CSSC[C@H](N)C(=O)NCC(=O)N[C@@H](CC(N)=O)C(=O)N[C@@H](CC(C)C)C(=O)N[C@@H](CO)C(=O)N[C@@H]([C@@H](C)O)C(=O)N1)[C@@H](C)O)[C@@H](C)O)[C@@H](C)O)[C@@H](C)O)C(=O)NCC(=O)N[C@H](C(=O)NCC(=O)N[C@@H](C)C(=O)N1CCC[C@H]1C(N)=O)C(C)C` [Calcitonin (human)], the “cAMP (pmol/well)” value ([2]; 100 nM (cAMP concentration)) is reported as 0.35 ± 0.15 pmol/well and the “ATP (nM ATP/well)” value ([1]; Table 2, 100 nM, 4 days) is reported as 9.9 ± 1.6 nM ATP/well.
For `CC[C@H](C)[C@H](NC(=O)[C@H](CC(=O)O)NC(=O)[C@H](CC(C)C)NC(=O)[C@H](Cc1cnc[nH]1)NC(=O)[C@@H]1CSSC[C@H](N)C(=O)N[C@@H](CO)C(=O)N[C@H]2CSSC[C@H](NC(=O)[C@H](CCC(=O)O)NC(=O)[C@H](CCCCN)NC(=O)[C@H](CC(=O)O)NC(=O)[C@H](CCSC)NC(=O)[C@H](CC(C)C)NC(=O)[C@H](CO)NC(=O)[C@H](CO)NC2=O)C(=O)N[C@@H](C(C)C)C(=O)N[C@@H](Cc2ccc(O)cc2)C(=O)N[C@@H](Cc2ccccc2)C(=O)N1)C(=O)N[C@H](C(=O)N[C@@H](Cc1c[nH]c2ccccc12)C(=O)O)[C@@H](C)CC` [Endothelin-1 (human, Bovine, Canine, Mouse, Porcine, Rat)], the “ATP (nM ATP/well)” value ([1]; Table 4, 10 nM) was 14.4 ± 2.4 nM ATP/well and the “Fold Induction ATP” value ([1]; Table 4, 10 nM, 0.01 µM) was 3.2* fold.
For `CC(C)Cn1c(=O)n(C)c(=O)c2[nH]cnc21` [IBMX, 3-Isobutyl-1-Methylxanthine], the “proliferation of neural stem cells” value ([1]; cAMP activators, GPCR-independent) was “increase”.
